# The source made the active and inactive calls. The calls are words filed in the database; no cut-off is given here.
# Assays:
# K562 = assay: Antiproliferative activity against human K562 cells assessed as inhibition of cell growth incubated for 72 hrs by MTT assay; format: functional, cell-based
# A549 = assay: Antiproliferative activity against human A549 cells assessed as inhibition of cell growth incubated for 72 hrs by MTT assay; format: functional, cell-based
# [1] = Antiproliferative activity against human RWPE-1 cells assessed as inhibition of cell growth incubated for 72 hrs by MTT assay; format: toxicity, cell-based
# Calu-1 = assay: Antiproliferative activity against human Calu-1 cells harboring KRAS G12C mutant assessed as inhibition of cell growth incubated for 72 hrs by MTT assay; format: functional, cell-based; settings: Calu-1, 72 h
# A-427 = assay: Antiproliferative activity against human A-427 cells harboring KRAS G12D mutant assessed as inhibition of cell growth incubated for 72 hrs by MTT assay; format: functional, cell-based; settings: A-427, 72 h
# PC-3 [2] = assay: Antiproliferative activity against human PC-3 cells transfected with SOS1 shRNA assessed as inhibition of cell growth incubated for 72 hrs by MTT assay; format: functional, cell-based; settings: PC-3, 72 h
# [3] = target: T1, Son of sevenless homolog 1 (Homo sapiens) (UniProt Q07889); assay: Inhibition of SOS1 in human PC-3 cells assessed as downregulation of RAS-GTP expression at 0.5 uM incubated for 15 mins by Western blotting analysis; format: cell-based
# T1 sequence (whole entry): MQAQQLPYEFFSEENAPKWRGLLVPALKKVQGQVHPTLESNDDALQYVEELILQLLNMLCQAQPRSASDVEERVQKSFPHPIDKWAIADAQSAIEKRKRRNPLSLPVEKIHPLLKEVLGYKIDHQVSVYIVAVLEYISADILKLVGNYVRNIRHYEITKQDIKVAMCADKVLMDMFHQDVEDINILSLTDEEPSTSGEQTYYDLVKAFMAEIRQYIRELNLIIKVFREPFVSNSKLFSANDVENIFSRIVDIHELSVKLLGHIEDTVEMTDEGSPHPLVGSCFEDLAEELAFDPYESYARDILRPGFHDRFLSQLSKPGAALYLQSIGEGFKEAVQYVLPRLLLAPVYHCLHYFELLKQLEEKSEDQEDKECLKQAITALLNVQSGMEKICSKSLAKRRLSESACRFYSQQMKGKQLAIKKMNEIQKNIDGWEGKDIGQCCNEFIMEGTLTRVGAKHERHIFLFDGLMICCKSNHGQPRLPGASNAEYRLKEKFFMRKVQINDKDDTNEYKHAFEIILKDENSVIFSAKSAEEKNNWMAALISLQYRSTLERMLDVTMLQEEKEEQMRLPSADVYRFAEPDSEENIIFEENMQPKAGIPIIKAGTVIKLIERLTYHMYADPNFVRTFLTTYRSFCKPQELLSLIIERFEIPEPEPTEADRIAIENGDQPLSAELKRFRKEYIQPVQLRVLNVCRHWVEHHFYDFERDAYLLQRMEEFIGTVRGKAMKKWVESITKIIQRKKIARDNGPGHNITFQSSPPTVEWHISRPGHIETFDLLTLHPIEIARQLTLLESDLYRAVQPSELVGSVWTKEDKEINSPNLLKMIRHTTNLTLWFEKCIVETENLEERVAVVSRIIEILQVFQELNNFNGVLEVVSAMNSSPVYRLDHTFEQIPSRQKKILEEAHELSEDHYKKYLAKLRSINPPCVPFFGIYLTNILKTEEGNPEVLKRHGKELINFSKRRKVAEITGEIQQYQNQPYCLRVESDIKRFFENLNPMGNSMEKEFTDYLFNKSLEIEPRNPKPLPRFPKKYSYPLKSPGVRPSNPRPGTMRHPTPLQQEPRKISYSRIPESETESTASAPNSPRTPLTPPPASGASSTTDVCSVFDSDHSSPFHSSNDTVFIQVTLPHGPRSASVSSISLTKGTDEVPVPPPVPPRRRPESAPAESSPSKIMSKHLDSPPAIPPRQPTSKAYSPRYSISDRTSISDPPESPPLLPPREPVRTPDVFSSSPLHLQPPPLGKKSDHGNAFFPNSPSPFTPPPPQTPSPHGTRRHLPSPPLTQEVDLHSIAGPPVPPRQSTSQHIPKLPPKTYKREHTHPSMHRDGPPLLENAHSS
# [4] = target: T1, Son of sevenless homolog 1 (Homo sapiens); assay: Inhibition of SOS1 in human PC-3 cells assessed as downregulation of AKT phosphorylation at 12.5 uM incubated for 15 mins by Western blotting analysis; format: cell-based
# [5] = target: Epidermal growth factor receptor (Homo sapiens, UniProt P00533); assay: Inhibition of EGFR in human PC-3 cells assessed as downregulation of AKT phosphorylation at 2.5 uM incubated for 15 mins by Western blotting analysis; format: cell-based
# Epidermal growth factor receptor, sequence (P00533 whole entry): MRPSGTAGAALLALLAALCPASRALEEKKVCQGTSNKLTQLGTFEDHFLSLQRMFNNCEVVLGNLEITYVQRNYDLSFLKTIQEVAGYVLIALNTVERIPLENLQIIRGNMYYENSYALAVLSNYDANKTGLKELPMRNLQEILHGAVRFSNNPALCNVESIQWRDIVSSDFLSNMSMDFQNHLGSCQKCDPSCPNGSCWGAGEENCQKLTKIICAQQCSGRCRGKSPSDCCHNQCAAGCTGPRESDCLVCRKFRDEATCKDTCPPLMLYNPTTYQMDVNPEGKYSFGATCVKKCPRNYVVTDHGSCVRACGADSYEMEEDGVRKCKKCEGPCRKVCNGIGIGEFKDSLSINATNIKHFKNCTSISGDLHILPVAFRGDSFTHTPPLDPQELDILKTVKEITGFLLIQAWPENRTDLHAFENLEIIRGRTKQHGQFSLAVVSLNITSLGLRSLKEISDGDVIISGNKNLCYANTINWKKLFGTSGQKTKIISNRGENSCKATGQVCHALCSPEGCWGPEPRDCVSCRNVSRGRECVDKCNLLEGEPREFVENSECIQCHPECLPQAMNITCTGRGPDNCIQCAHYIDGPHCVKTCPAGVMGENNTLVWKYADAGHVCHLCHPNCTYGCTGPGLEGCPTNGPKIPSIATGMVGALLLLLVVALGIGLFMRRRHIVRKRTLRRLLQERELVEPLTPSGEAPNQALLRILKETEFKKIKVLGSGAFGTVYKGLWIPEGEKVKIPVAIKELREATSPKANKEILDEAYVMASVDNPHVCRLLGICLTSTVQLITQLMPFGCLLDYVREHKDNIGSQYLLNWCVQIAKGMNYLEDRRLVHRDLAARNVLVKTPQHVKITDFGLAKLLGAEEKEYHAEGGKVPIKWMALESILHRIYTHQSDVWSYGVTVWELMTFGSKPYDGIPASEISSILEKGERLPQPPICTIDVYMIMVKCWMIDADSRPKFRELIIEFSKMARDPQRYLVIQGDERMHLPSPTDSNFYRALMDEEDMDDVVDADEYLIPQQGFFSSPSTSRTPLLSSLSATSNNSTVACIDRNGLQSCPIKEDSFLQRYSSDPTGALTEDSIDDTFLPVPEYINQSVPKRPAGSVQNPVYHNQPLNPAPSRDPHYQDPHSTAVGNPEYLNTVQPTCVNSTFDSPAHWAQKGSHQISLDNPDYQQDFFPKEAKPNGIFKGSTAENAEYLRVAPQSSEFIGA
# PC-3 [6] = assay: Induction of apoptosis in human PC-3 cells assessed as viable cells at 0.5 uM by Annexin V-FITC staining based flow cytometry (reference value: 94.9%); format: functional; settings: read-out: Activity
# PC-3 [7] = assay: Induction of apoptosis in human PC-3 cells assessed as upregulation of cleaved caspase-3 expression by Western blotting analysis; format: functional, cell-based
# PC-3 [8] = assay: Induction of cell cycle arrest in human PC-3 cells assessed as accumulation of cells at G1 phase at 2.5 uM by PI staining based flow cytometry (reference value: 75.66%); format: functional
# PC-3 [9] = assay: Induction of cell cycle arrest in human PC-3 cells assessed as accumulation of cells at G2 phase at 0.5 uM by PI staining based flow cytometry (reference value: 7.75%); format: functional
# PC-3 [10] = assay: Induction of cell cycle arrest in human PC-3 cells assessed as accumulation of cells at S phase at 2.5 uM by PI staining based flow cytometry (reference value: 16.58%); format: functional
# PC-3 [11] = assay: Induction of cell cycle arrest in human PC-3 cells assessed as downregulation of CDK4 expression by Western blotting analysis; format: functional, cell-based
# HUVEC [12] = assay: Antiangiogenic activity in HUVEC cells assessed as reduction in tube length at 0.5 to 12.5 uM incubated for 8 hrs by matrigel based microscopic analysis; format: functional, cell-based; settings: Homo sapiens, dose 0.5-12.5 µM
# HUVEC [13] = assay: Inhibition of cell migration in HUVEC cells assessed as reduction in migration index measured after 48 hrs by wound healing assay; format: functional, cell-based; settings: Homo sapiens
# PC-3 [14] = assay: Antitumor activity against human PC-3 cells xenografted in BALB/c mouse assessed as reduction in tumor weight at 5 mg/kg,ip administrated once every 4 days for 24 days; format: functional, organism-based; settings: time 24.0 day
# PC-3 [15] = assay: Antitumor activity against human PC-3 cells xenografted in BALB/c mouse assessed as increase in apoptosis in tumor tissue at ip administrated once every 4 days for 24 days by TUNEL staining based immunohistochemical analysis; format: functional, organism-based; settings: time 24.0 day
# [16] = Toxicity in BALB/c mouse xenografted with human PC-3 cells assessed as heart pathological change at 20 mg/kg,ip administrated once every 4 days for 24 days by hematoxylin and eosin staining based analysis; format: organism-based; settings: in vivo, 576 h, time 24 day
# [17] = Toxicity in BALB/c mouse xenografted with human PC-3 cells assessed as lung pathological change at 5 mg/kg,ip administrated once every 4 days for 24 days by hematoxylin and eosin staining based analysis; format: organism-based; settings: in vivo, 576 h, time 24 day
# [18] = Toxicity in BALB/c mouse xenografted with human PC-3 cells assessed as change in AST level at 5 mg/kg,ip administrated once every 4 days for 24 days by automatic biochemical analyzer; format: organism-based; settings: in vivo, 576 h, time 24 day
smiles,measurement,setting,value
COc1cc2ncnc(N[C@H](C)c3cccc(F)c3)c2cc1OC1CCOCC1,Activity,K562,Active
same,Activity,A549,Active
same,IC50 at 72 h,[1],> 10000 nM
same,IC50,Calu-1,550 nM
same,IC50,A-427,550 nM
same,IC50,PC-3 [2],3920 nM
same,inhibition,[3],Active
same,inhibition,[4],Active
same,inhibition,[5],Active
same,viability at 0.5 µM,PC-3 [6],84.9%
same,Activity,PC-3 [7],Dose-Dependent Effect
same,Activity,PC-3 [8],81.85%
same,Activity,PC-3 [9],9.71%
same,Activity,PC-3 [10],5.5%
same,Activity,PC-3 [11],Dose-Dependent Effect
same,Activity,HUVEC [12],Active
same,inhibition,HUVEC [13],Dose-Dependent Effect
same,Activity,PC-3 [14],Active
same,Activity,PC-3 [15],Dose-Dependent Effect
same,Activity,[16],Toxic
same,Activity,[17],Toxic
same,Activity,[18],Non-Toxic
